Data from patent publication US4241069A, “3-Methylene flavanones and 3-methylene chromanones” (Miles Laboratories, Inc., priority 1979, dated 1980).
In brackets after ≈: the same amount, converted by molar mass.

How the values were obtained:
[1] = tested on: Clostridium acetobutylicum ATCC 824; assay: MIC, agar incorporation method, anaerobic; format: cell-based; settings: ATCC824, 48 h, 48 hours at 35° C., GasPak Anaerobic Jar, read-out: Minimal Inhibitory Concentration
Method: (§1) The compounds of the present invention were tested for their ability to inhibit the growth of microorganisms by in vitro tests. Generally the in vitro tests involve growing representative microorganisms under conditions favorable to such growth and measuring the effectiveness of one or more compounds in inhibiting or destroying the growth of the microorganisms. The microorganisms used include representative bacteria, fungi and yeasts.
(§2) A representative selection of the test microorganisms were cultured in a nutrient broth, such as, for example, Eugon, commercially available from Difco Laboratories, Detroit, Michigan. Bacteria and Candida species were cultured for 24 hours at 32°-37° C. and fungi were cultured for approximately one week at 32° C. Inocula were prepared by suspending the growth or spores from a slant culture in sufficient sterile normal (0.9 percent) saline or Eugon broth, to yield cell or spore concentrations of 1,000,000 cells per milliliter. Anaerobic bacteria were cultured for 48-72 hours at 32°-37° C. in a thioglycollate containing medium, for example, Fluid Thioglycollate medium or NIH thioglycollate broth, commercially available from Difco Laboratories.
(§3) The compounds of the present invention were tested for activity against bacteria, yeasts and fungi by the agar incorporation method described below. MA 1347, 3-(dimethylaminomethyl)flavanone (disclosed in U.S. Pat. No. 3,753,985) was used as a comparative standard along with controls for each solvent system used.
(§4) A series of agar plates containing two-fold dilutions of each compound to be tested, ranging in concentration from 100 to 3.1 mcg/ml of agar medium was prepared. Aliquots of each concentration (100, 50, 25, 12.5, 6.2, and 3.1) prepared in N,N-dimethylformamide or 50 percent aqueous DMF were added to liquid Eugon agar at 48° C. (one part test solution to 100 parts agar). In some cases, tests with further dilutions to 0.125 mcg/ml were conducted. The agar medium, containing the 3-methylene flavanone or chromanone compound to be tested, was then dispensed into petri dishes and allowed to solidify. The solidified plates were kept overnight at room temperatures to dry the surface of the agar.
(§5) The agar plates were then inoculated with a drop of the standardized cell or spore suspension. Inoculated plates were incubated at 32° C. The inhibition end-point or minimum inhibitory concentration (MIC) shown in Table D represent the lowest concentration of test compound which inhibited the growth of the microorganism. Visual determination of growth inhibition was used. Bacteria and yeast end-points were determined after 24 hours incubation; molds, dermatophytes and anaerobes after 48-72 hours incubation. MIC values shown as ranges represent the extremes found in repeat assays. Virtually all such values were written plus or minus one dilution, the accepted variation of a two-fold dilution assay.
(§6) *Anaerobic: 48 hours incubation at 35° C. GasPak Anaerobic Jar

[2] = tested on: Propionobacterium acnes ATCC 6919; assay: MIC, agar incorporation method, anaerobic; format: cell-based; settings: 48 hours at 35° C., GasPak Anaerobic Jar, read-out: Minimal Inhibitory Concentration
Method: as §1, §2, §3, §4, §5, §6

S. aureus NRRL B2747 [3] = assay: MIC, agar incorporation method; format: cell-based, Staphylococcus aureus; settings: Staphylococcus aureus, NRRLB2747, 32° C., 24 hours, read-out: Minimal Inhibitory Concentration
Method: as §1, §2, §3, §4, §5

[4] = tested on: Trichophyton mentagrophytes ATCC 4807; assay: MIC, agar incorporation method; format: cell-based; settings: ATCC4807, 32° C., 48-72 hours, read-out: Minimal Inhibitory Concentration
Method: as §1, §2, §3, §4, §5

C. tropicalis NRRL Y1410 = assay: MIC, agar incorporation method; format: cell-based; settings: Candida tropicalis, NRRLY1410; 32° C., 24 hours; read-out: Minimal Inhibitory Concentration
Method: as §1, §2, §3, §4, §5

C. albicans NRRL Y-477 = assay: MIC, agar incorporation method; format: cell-based; settings: Candida albicans, NRRLY477, 32° C., 24 hours, read-out: Minimal Inhibitory Concentration
Method: as §1, §2, §3, §4, §5

T. rubrum ATCC 10218 = assay: MIC, agar incorporation method; format: cell-based; settings: Trichophyton rubrum, ATCC10218; 32° C., 48-72 hours; read-out: Minimal Inhibitory Concentration
Method: as §1, §2, §3, §4, §5

[5] = tested on: Streptococcus faecalis ATCC 10541; assay: MIC, agar incorporation method; format: cell-based; settings: Enterococcus faecalis, ATCC10541; 32° C., 24 hours; read-out: Minimal Inhibitory Concentration
Method: as §1, §2, §3, §4, §5

A. fumigatus NRRL 165 = assay: MIC, agar incorporation method; format: cell-based; settings: Aspergillus fumigatus, NRRL165, 32° C., 48-72 hours, read-out: Minimal Inhibitory Concentration
Method: as §1, §2, §3, §4, §5

[6] = tested on: Pseudomonas aeruginosa ATCC 14502; assay: MIC, agar incorporation method; format: cell-based; settings: ATCC14502, 32° C., 24 hours, read-out: Minimal Inhibitory Concentration
Method: as §1, §2, §3, §4, §5

A. fumigatus NRRL 163 = assay: MIC, agar incorporation method; format: cell-based; settings: Aspergillus fumigatus, NRRL163, NRRL 163; 32° C., 48-72 hours; read-out: Minimal Inhibitory Concentration
Method: as §1, §2, §3, §4, §5

[7] = tested on: Proteus vulgaris NRRL B123; assay: MIC, agar incorporation method; format: cell-based; settings: NRRLB123, 32° C., 24 hours, read-out: Minimal Inhibitory Concentration
Method: as §1, §2, §3, §4, §5

T. mentagrophytes CDC = assay: MIC, agar incorporation method; format: cell-based; settings: Trichophyton mentagrophytes, 32° C., 48-72 hours, read-out: Minimal Inhibitory Concentration
Method: as §1, §2, §3, §4, §5

[8] = tested on: Escherichia coli ATCC 8739; assay: MIC, agar incorporation method; format: cell-based; settings: ATCC8739, 32° C., 24 hours, read-out: Minimal Inhibitory Concentration
Method: as §1, §2, §3, §4, §5

[9] = tested on: Aspergillus niger ATCC 16404; assay: MIC, agar incorporation method; format: cell-based; settings: ATCC16404, 32° C., 48-72 hours, read-out: Minimal Inhibitory Concentration
Method: as §1, §2, §3, §4, §5

[10] = tested on: Sarcina subflava ATCC 7468; assay: MIC, agar incorporation method; format: cell-based; settings: ATCC7468, 32° C., 24 hours, read-out: Minimal Inhibitory Concentration
Method: as §1, §2, §3, §4, §5

C. krusei VM 29B = assay: MIC, agar incorporation method; format: cell-based; settings: Pichia kudriavzevii, VM29B; 32° C., 24 hours; read-out: Minimal Inhibitory Concentration
Method: as §1, §2, §3, §4, §5

[11] = tested on: Staphylococcus aureus ATCC 6538; assay: MIC, agar incorporation method; format: cell-based; settings: Staphylococcus aureus, ATCC6538; S. aureus ATCC 6538; 32° C., 24 hours; read-out: Minimal Inhibitory Concentration
Method: as §1, §2, §3, §4, §5

T. mentagrophytes TM-2 = assay: MIC, agar incorporation method; format: cell-based; settings: Trichophyton mentagrophytes, TM2, 32° C., 48-72 hours, read-out: Minimal Inhibitory Concentration
Method: as §1, §2, §3, §4, §5

[12] = tested on: Microsporum gypseum ATCC 14683; assay: MIC, agar incorporation method; format: cell-based; settings: Nannizzia gypsea, ATCC14683, 32° C., 48-72 hours; read-out: Minimal Inhibitory Concentration
Method: as §1, §2, §3, §4, §5

C. guillermondii VM 42 = assay: MIC, agar incorporation method; format: cell-based; settings: 32° C., 24 hours; read-out: Minimal Inhibitory Concentration
Method: as §1, §2, §3, §4, §5

[13] = tested on: Candida albicans ATCC 10231; assay: MIC, agar incorporation method; format: cell-based; settings: ATCC10231, C. albicans ATCC 10231, 32° C., 24 hours, read-out: Minimal Inhibitory Concentration
Method: as §1, §2, §3, §4, §5

S. aureus NRRL B2747 [14] = assay: MIC, agar incorporation method, anaerobic; format: cell-based; settings: Staphylococcus aureus, NRRLB2747, 48 hours at 35° C., GasPak Anaerobic Jar, read-out: Minimal Inhibitory Concentration
Method: as §1, §2, §3, §4, §5, §6

[15] = tested on: Bacteriodides fragilis ATCC 8482; assay: MIC, agar incorporation method, anaerobic; format: cell-based; settings: 48 hours at 35° C., GasPak Anaerobic Jar, read-out: Minimal Inhibitory Concentration
Method: as §1, §2, §3, §4, §5, §6

[16] = tested on: Clostridium sporogenes ATCC 11437; assay: MIC, agar incorporation method, anaerobic; format: cell-based; settings: ATCC11437, 48 hours at 35° C., GasPak Anaerobic Jar, read-out: Minimal Inhibitory Concentration
Method: as §1, §2, §3, §4, §5, §6

T. tonsurans ATCC 10217 = assay: MIC, agar incorporation method; format: cell-based; settings: Trichophyton tonsurans, ATCC10217; 32° C., 48-72 hours; read-out: Minimal Inhibitory Concentration
Method: as §1, §2, §3, §4, §5

Row | MIC [1] | MIC [2] | MIC (S. aureus NRRL B2747 [3]) | MIC [4] | MIC (C. tropicalis NRRL Y1410) | MIC (C. albicans NRRL Y-477) | MIC (T. rubrum ATCC 10218) | MIC [5] | MIC [6] | MIC (A. fumigatus NRRL 163) | MIC (T. mentagrophytes CDC) | MIC [8] | MIC [9] | MIC [10] | MIC (C. krusei VM 29B) | MIC [11] | MIC (T. mentagrophytes TM-2) | MIC [12] | MIC (C. guillermondii VM 42) | MIC [13] | SMILES | further results
1 | ≤ 100 µg/mL | ≤ 100 µg/mL | 3.1 µg/mL (≈ 11.5 µM) | 6.2 µg/mL (≈ 22.9 µM) | 25 µg/mL (≈ 92.3 µM) | 12.5 µg/mL (≈ 46.2 µM) | ≤ 3.1 µg/mL | 25 µg/mL (≈ 92.3 µM) | > 100 µg/mL | 6.2 µg/mL (≈ 22.9 µM) | 6.2 µg/mL (≈ 22.9 µM) | > 100 µg/mL | 25 µg/mL (≈ 92.3 µM) | 6.2 µg/mL (≈ 22.9 µM) | 12.5 µg/mL (≈ 46.2 µM) | ≤ 3.1 µg/mL | 6.2 µg/mL (≈ 22.9 µM) | 6.2 µg/mL (≈ 22.9 µM) | 25 µg/mL (≈ 92.3 µM) | 12.5 µg/mL (≈ 46.2 µM) | C=C1C(=O)c2ccccc2OC1c1ccc(Cl)cc1 (stereo not shown) [Ex. 3, 4'-chloro-3-methylene flavanone] | MIC (A. fumigatus NRRL 165): 50 µg/mL (≈ 185 µM); MIC [7]: > 100 µg/mL
2 | ≤ 100 µg/mL | ≤ 100 µg/mL | 6.2 µg/mL (≈ 22 µM) | 6.2 µg/mL (≈ 22 µM) | 50 µg/mL (≈ 178 µM) | 25 µg/mL (≈ 88.9 µM) | ≤ 3.1 µg/mL | 50 µg/mL (≈ 178 µM) | > 100 µg/mL | 12.5 µg/mL (≈ 44.4 µM) | 6.2 µg/mL (≈ 22 µM) | > 100 µg/mL | 50 µg/mL (≈ 178 µM) | 12.5 µg/mL (≈ 44.4 µM) | 25 µg/mL (≈ 88.9 µM) | ≤ 3.1 µg/mL | 6.2 µg/mL (≈ 22 µM) | 6.2 µg/mL (≈ 22 µM) | 50 µg/mL (≈ 178 µM) | 25 µg/mL (≈ 88.9 µM) | C=C1C(=O)c2ccccc2OC1c1ccc([N+](=O)[O-])cc1 (stereo not shown) [Ex. 10, 4'-nitro-3-methylene flavanone] | MIC (A. fumigatus NRRL 165): 100 µg/mL (≈ 356 µM); MIC [7]: > 100 µg/mL

Row | SMILES | MIC [1] | MIC [2] | MIC (S. aureus NRRL B2747 [3]) | MIC [4] | MIC (C. tropicalis NRRL Y1410) | MIC (C. albicans NRRL Y-477) | MIC (T. rubrum ATCC 10218) | MIC [5] | MIC [6] | MIC (A. fumigatus NRRL 163) | MIC (T. mentagrophytes CDC) | MIC [8] | MIC [9] | MIC [10] | MIC (C. krusei VM 29B) | MIC [11] | MIC (T. mentagrophytes TM-2) | MIC [12] | MIC (C. guillermondii VM 42) | MIC [13] | further results
3 | C=C1C(=O)c2ccccc2OC1c1ccc(Cl)cc1Cl (stereo not shown) [Ex. 4, 2',4'-dichloro-3-methylene flavanone] |  | 3.1 µg/mL (≈ 10.2 µM) | 1.56 µg/mL (≈ 5.11 µM) | 12.5 µg/mL (≈ 41 µM) | 50 µg/mL (≈ 164 µM) | 25 µg/mL (≈ 81.9 µM) | 12.5 µg/mL (≈ 41 µM) | 25 to 50 µg/mL (≈ 81.9 to 164 µM) | > 100 µg/mL | 50 µg/mL (≈ 164 µM) | 12.5 to 25 µg/mL (≈ 41 to 81.9 µM) | > 100 µg/mL | 100 µg/mL (≈ 328 µM) | 3.1 µg/mL (≈ 10.2 µM) | 25 to 50 µg/mL (≈ 81.9 to 164 µM) | 1.56 µg/mL (≈ 5.11 µM) | 12.5 to 25 µg/mL (≈ 41 to 81.9 µM) | 6.2 to 12.5 µg/mL (≈ 20.3 to 41 µM) | 50 µg/mL (≈ 164 µM) | 25 µg/mL (≈ 81.9 µM) | MIC (S. aureus NRRL B2747 [14]): 6.2 µg/mL (≈ 20.3 µM); MIC [15]: 3.1 µg/mL (≈ 10.2 µM); MIC [16]: ≤ 0.78 µg/mL; MIC (T. tonsurans ATCC 10217): 6.2 µg/mL (≈ 20.3 µM)
